The record followed here is publication PMC8777265, “The Environmental Pollutant Bromophenols Interfere With Sulfotransferase That Mediates Endocrine Hormones” (Frontiers in Endocrinology, 2022).

Common to all, as to assay type: biochemical
The target in test [1] is T1, SULT1A1 (Homo sapiens, UniProt P50225).
T1 construct: recombinant human enzyme, commercial (BD Gentest)
The test can be described thus: PNP sulfation, UPLC-UV, single-concentration screen. Particulars: 40 µM PNP, 40 µM PAPS, 5 mM MgCl2, 100 mM Tris-HCl pH 7.4, 37 °C.

Test [2] deals with T2, SULT1B1 (Homo sapiens, UniProt O43704).
T2 construct: recombinant human enzyme, commercial (BD Gentest)
T2 sequence (O43704 whole entry): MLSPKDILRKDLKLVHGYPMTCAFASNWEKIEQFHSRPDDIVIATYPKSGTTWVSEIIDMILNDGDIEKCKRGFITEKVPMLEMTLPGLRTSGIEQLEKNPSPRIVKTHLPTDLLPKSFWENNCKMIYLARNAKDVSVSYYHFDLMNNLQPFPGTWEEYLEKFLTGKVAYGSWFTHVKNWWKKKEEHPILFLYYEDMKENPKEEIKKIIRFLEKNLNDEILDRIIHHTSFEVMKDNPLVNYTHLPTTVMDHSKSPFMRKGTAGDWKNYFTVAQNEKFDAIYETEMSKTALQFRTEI
The description is as above. Particulars: 25 µM PNP, 40 µM PAPS, 5 mM MgCl2, 100 mM Tris-HCl pH 7.4, 37 °C.

Test [3] deals with T2, SULT1B1. The test is described as follows: PNP sulfation, UPLC-UV, […] inhibitor.
The target in test [4] is T3, SULT1A3 (Homo sapiens, UniProt P0DMM9).
T3 construct: recombinant human enzyme, commercial (BD Gentest)
T3 sequence (P0DMM9 whole entry): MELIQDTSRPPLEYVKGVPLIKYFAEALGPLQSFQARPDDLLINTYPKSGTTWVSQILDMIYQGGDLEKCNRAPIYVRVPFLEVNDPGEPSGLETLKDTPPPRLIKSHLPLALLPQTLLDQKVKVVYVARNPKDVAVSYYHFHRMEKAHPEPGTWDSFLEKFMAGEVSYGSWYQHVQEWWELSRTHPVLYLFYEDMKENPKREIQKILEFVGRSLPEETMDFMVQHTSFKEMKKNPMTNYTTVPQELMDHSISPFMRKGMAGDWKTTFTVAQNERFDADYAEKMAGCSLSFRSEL
The test can be described thus: PNP sulfation, UPLC-UV, […] inhibitor.

Test [5] deals with T1, SULT1A1. The test is described as follows: PNP sulfation, UPLC-UV, […] inhibitor.
The target of a further test is T4, SULT1E1 (Homo sapiens, UniProt P49888).
T4 construct: recombinant human enzyme, commercial (BD Gentest)
T4 sequence (P49888 1-294): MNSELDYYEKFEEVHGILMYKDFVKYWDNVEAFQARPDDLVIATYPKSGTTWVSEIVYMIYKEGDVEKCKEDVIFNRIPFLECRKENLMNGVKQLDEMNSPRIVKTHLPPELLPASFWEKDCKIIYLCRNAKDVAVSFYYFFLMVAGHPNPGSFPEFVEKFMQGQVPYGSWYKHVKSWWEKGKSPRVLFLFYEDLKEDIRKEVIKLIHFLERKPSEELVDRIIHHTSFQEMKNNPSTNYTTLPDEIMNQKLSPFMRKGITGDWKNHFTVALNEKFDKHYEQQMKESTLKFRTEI
The test can be described thus: PNP sulfation, UPLC-UV, […] inhibitor.

Test [6] has as its target T3, SULT1A3. The test is described as follows: PNP sulfation, UPLC-UV, Lineweaver-Burk with slope replot.

T1 sequence (P50225 whole entry): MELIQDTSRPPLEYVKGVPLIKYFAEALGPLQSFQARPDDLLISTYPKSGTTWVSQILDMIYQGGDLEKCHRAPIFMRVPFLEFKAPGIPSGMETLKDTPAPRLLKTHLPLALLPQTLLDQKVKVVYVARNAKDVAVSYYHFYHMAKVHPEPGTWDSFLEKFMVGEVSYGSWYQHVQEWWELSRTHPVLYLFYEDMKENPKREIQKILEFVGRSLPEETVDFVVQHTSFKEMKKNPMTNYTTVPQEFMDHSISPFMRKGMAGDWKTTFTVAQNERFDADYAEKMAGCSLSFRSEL

Take `Oc1cccc(Br)c1` [3-BP]: the “% inhibition at 100 μM” value is 3-BP and 4-BP only showed strong inhibition ability towards SULT1A1 and SULT1B1 at SULT1A1 [1]; 3-BP and 4-BP only showed strong inhibition ability towards SULT1A1 and SULT1B1 on SULT1B1 [2].

As for `Oc1ccc(Br)cc1Br` [2,4-DBP], the IC50 on SULT1B1 [3] came out at 4.22 µM; against SULT1A3 [4], 25.5 µM; against SULT1A1 [5], 1.03 µM; against SULT1E1 it was 3.24 µM.

In the case of `Oc1c(Br)cc(Br)cc1Br` [2,4,6-TBP], the IC50 on SULT1B1 [3] amounted to 1.06 µM; on SULT1A3 [4] it was 4.02 µM; at SULT1A1 [5], 1.02 µM; against SULT1E1 it was 6.06 µM. The affinity on SULT1A3 [6], expressed as Ki, was 16.3 µM.

Turning to `Oc1cc(Br)ccc1Br` [2,5-DBP], the results for the IC50 on SULT1B1 [3], on SULT1A3 [4] and on SULT1A1 [5] were 5.42 µM, 12.9 µM and 1.24 µM, respectively.

Consider `Oc1ccccc1Br` [2-BP], for which the IC50 came to 1.07 µM against SULT1B1 [3], 8.88 µM at SULT1A3 [4], 1.03 µM at SULT1A1 [5] and 25.9 µM against SULT1E1.
